We go through 50 compounds from ChEMBL document CHEMBL1201862, “PubChem BioAssay data set” (2004).

The subject of assay [1] is MDA-N. In words: growth of human tumour cells (NCI), 48 h.
The test system of assay [2] is Hs-578T. In words: growth of human tumour cells (NCI), 48 h.

Structures are written as SMILES.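 Results reflect a 48-hour exposure of cells in 96-well plates to compound at five concentrations. GI50 marks 50% less growth.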 The source made the active and inactive calls. No stated cut-off is given here; in the data, active = GI50 up to about 1.1 µM and inactive = higher. Bounds are passed on as bounds.

As to `COc1ccc2c3c1OC1C(OC)(OC)CC4(C=C2)CN(C)CCC314` (stereo not given), the GI50 in assay [1] was > 100 µM (inactive).

Consider `CC1CCCC2(CC[N+](C)(CCC[N+](C)(C)C)CC2)C1` (stereo not given), for which the GI50 in assay [2] and in assay [1] was > 100 µM (inactive) each time.

Turning to `COC1=CC2=NCCc3n[nH]c(c32)C1=O`, the GI50 is 29.8 µM (inactive) in assay [2] and 10.9 µM (inactive) in assay [1].

Regarding `Nc1nncc2[nH]nnc12`, the GI50 in assay [2] and in assay [1] was > 100 µM (inactive) in each case.

Take `COc1cc(C2S/C(=C/c3ccccc3)C(=O)N2c2cc(Cl)c(Cl)cc2Cl)cc(OC)c1OC` (stereo not given): the GI50 in assay [2] was 9.27 µM (inactive); in assay [1], 50.5 µM (inactive).

In the case of `O=C(O)CN(CC(=O)O)Cc1cc2c(cc1O)Oc1cc(O)c(CN(CC(=O)O)CC(=O)O)cc1C21OC(=O)c2ccccc21` [OFTASCEINE], the GI50 in assay [2] and in assay [1] was > 100 µM (inactive) throughout.

In the case of `CCN(CC)Cc1cc(/N=N\c2c(O)ccc3c(/N=N\c4ccc(O)c(CN(CC)CC)c4)c(O)ccc23)ccc1O`, the results for the GI50 in assay [2] and in assay [1] were 3.73 µM (inactive) and 4.8 µM (inactive), respectively.

As for `CN1CCN(/C(N)=C(\C#N)C(=O)Nc2ccc(Cl)cc2)CC1`, the GI50 in assay [1] was 52.4 µM (inactive).

On to `CC(NC(=O)OC(C)(C)C)C(=O)NC(Cc1ccccc1)C(=O)NCC(=O)Oc1c(Cl)c(Cl)c(Cl)c(Cl)c1Cl` (stereo not given), for which the GI50 in assay [2] is 37.5 µM (inactive); in assay [1], 28.2 µM (inactive).

Regarding `COc1cc(NCc2ccc3nc(-c4ccccc4)c(N)nc3c2)cc(OC)c1OC`, the GI50 in assay [1] was 27.5 µM (inactive).

As for `N#C/C=C(/NC(=O)Nc1ccccc1)N1CCCC1`, the figures for the GI50 in assay [2] and in assay [1] were > 86.1 µM (inactive) and > 100 µM (inactive), respectively.

For `COC(=O)CC1C2CC3C(C2=O)C13` (stereo not given), the GI50 in assay [2] and in assay [1] was > 100 µM (inactive) in each case.

Take `O=C(/C=C/c1ccccc1)CSc1nc[nH]n1`: the GI50 in assay [1] was > 100 µM (inactive).

For `CCN(CC)CCN1CCN=C2c3cc(OC)ccc3Nc3c([N+](=O)[O-])ccc1c32`, the GI50 in assay [1] is 1.04 µM (active).

In the case of `O=C(c1ccccc1)c1ccc2[nH]c(-c3c(Cl)c(Cl)c(Cl)c(Cl)c3C(=O)Nc3ccco3)nc2c1`, in assay [1], the GI50 is 15.3 µM (inactive).

Take `C[N+](C)(C)CC1CCCc2ccccc2C1=O` (stereo not given): the GI50 in assay [2] was 37.8 µM (inactive).

`O=C1CSC(c2ccccc2O)N1c1ccc(-n2c(-c3ccccc3)nc3ccccc3c2=O)cc1` (stereo not given): the GI50 is 23.4 µM (inactive) in assay [2] and 28.2 µM (inactive) in assay [1].

Turning to `O=C(CSc1nc2ccccc2c(=O)n1-c1ccccc1)N/N=C1\C(=O)Nc2ccc(Br)cc21`, the GI50 in assay [2] is 7.05 µM (inactive); in assay [1], 3.01 µM (inactive).

As for `CC(=O)c1c(O)ccc2c1c1c(n2C)C(=O)c2ccccc2C1=O`, the GI50 in assay [2] was 2.82 µM (inactive).

With `Cn1nc2ccc(Nc3cc(=O)[nH]c4ccc5nn(C)nc5c34)cc2n1`, the GI50 in assay [2] was > 100 µM (inactive).

For `COc1ccc(C(=O)c2ccc(-n3c4ccccc4c4ccc5c(c43)C(=O)C=CC5=O)cc2)cc1`, the GI50 in assay [2] was 1.69 µM (inactive); in assay [1], 2.72 µM (inactive).

As for `C/C=C/[C@@H]1O[C@H](CC#C[Si](C)(C)C)[C@@]2(C=O)C(C)=CC[C@H](C(C)C)[C@@H]12`, the values for the GI50 in assay [2] and in assay [1] were 33.3 µM (inactive) and 19.4 µM (inactive), respectively.

As for `Cc1ccccc1/N=N/c1c(O)ccc2ccccc12`, the GI50 in assay [2] is 49.3 µM (inactive); in assay [1], > 100 µM (inactive).

Regarding `Cc1nn2c(C(=O)N/N=C/c3ccccc3O)c(C)nc2s1`, the GI50 in assay [2] and in assay [1] was > 100 µM (inactive) throughout.

Regarding `Cc1cccc(CP(Cc2cccc(C)c2)CC2(Cp3c4ccccc4c4ccccc43)COC2)c1`, in assay [1], the GI50 was 6.32 µM (inactive).

Regarding `Cc1ccc(NC(=O)c2cccc(OP(=O)(O)Nc3ccc(C)cc3)c2)cc1`, the GI50 in assay [2] is > 100 µM (inactive); in assay [1] it was 63.5 µM (inactive).

Consider `Cn1cnc(C(N)=[Se])c1N`, for which the GI50 was 3.74 µM (inactive) in assay [2] and 4.98 µM (inactive) in assay [1].

Regarding `COc1ccc2c(C)cc(=O)oc2c1OC`, the GI50 in assay [2] and in assay [1] was > 100 µM (inactive) in each case.

With `Cc1cccc2c(NCCCN(C)C)c3c([N+](=O)[O-])ccc(C)c3nc12`, the GI50 in assay [2] is 0.439 µM (active); in assay [1] it was 0.196 µM (active).

Take `COc1cccc(-c2nc(-c3cnccn3)n(C3OC(CO)C(O)C3O)n2)c1` (stereo not given): the GI50 in assay [1] was > 100 µM (inactive).

Regarding `O=C(/C=C/c1ccc(Oc2cc(C(=O)/C=C/c3ccc(O)cc3)c(O)cc2O)cc1)c1ccc(O)cc1O` [RHUSCHALCONE II], the GI50 in assay [2] is 7.28 µM (inactive).

Take `O=S(=O)(O)c1cc(/N=N/c2c(O)ccc3ccccc23)c2c(S(=O)(=O)O)cccc2c1`: in assay [2], the GI50 was > 100 µM (inactive).

As to `ClC1=C(Cl)C2OC3C=CCC3OC2C(Cl)=C1Cl` (stereo not given), the figures for the GI50 in assay [2] and in assay [1] were 27.5 µM (inactive) and 51.3 µM (inactive), respectively.

As for `O=C(CN1CCN(C(=O)OCc2ccccc2)CCN(CC(=O)N2CCCCC2)CCN(C(=O)OCc2ccccc2)CC1)N1CCCCC1`, the figures for the GI50 in assay [2] and in assay [1] were 14.3 µM (inactive) and 14.8 µM (inactive), respectively.

Take `Cc1nc2ccc(Cl)cc2c2c1CCS2`: the GI50 in assay [2] is 28.6 µM (inactive); in assay [1], > 100 µM (inactive).

Turning to `CCN(CC)C(=S)N/N=C(/c1ccccc1)c1ccccn1`, the GI50 in assay [2] was > 37.6 µM (inactive); in assay [1] it was 1.07 µM (active).

For `CC(C)=NN/C(=N\c1ccc(Cl)cc1)NS(=O)(=O)c1ccc(C)cc1`, the GI50 in assay [2] and in assay [1] was > 100 µM (inactive) each time.

For the compound `COc1cc(Br)cc2cc(-c3cn4c(n3)sc3ccccc34)c(=O)oc12`, in assay [2], the GI50 was 15.6 µM (inactive).

For `COc1ccc(C(SC2C(O)C(CO)OC2n2ccc(=O)[nH]c2=O)(c2ccccc2)c2ccc(OC)cc2)cc1` (stereo not given), the figures for the GI50 in assay [2] and in assay [1] were 20.9 µM (inactive) and 9.66 µM (inactive), respectively.

`CCCC1(CCC)c2cc(/C=N\O)ccc2-c2ccc(-c3ccc(C(C)(C)C)cc3)cc21`: the GI50 is 88.3 µM (inactive) in assay [2] and 57.3 µM (inactive) in assay [1].

Consider `O=C(N/N=C/c1ccco1)c1cc(I)cc(I)c1O`, for which the figures for the GI50 in assay [2] and in assay [1] were 34.5 µM (inactive) and 22.9 µM (inactive), respectively.

For `NC(=O)c1cc2ccccc2o/c1=N/c1ccccc1`, the GI50 in assay [2] and in assay [1] was > 100 µM (inactive) throughout.

Take `Nc1nc(SCc2ccccn2)c2ncn(C3CCCC3)c2n1`: the GI50 is 25.9 µM (inactive) in assay [2] and > 100 µM (inactive) in assay [1].

As to `Nc1ccc2c(c1)Nc1c3ccccc3nc3cccc-2c13`, the values for the GI50 in assay [2] and in assay [1] were 2.03 µM (inactive) and 1.42 µM (inactive), respectively.

As to `CCOC(=O)n1c(=O)nc2c3c(ncn21)Oc1c(c(-c2ccccc2)nn1-c1ccccc1)C3c1ccc(Cl)cc1` (stereo not given), the GI50 in assay [2] is 1.66 µM (inactive); in assay [1] it was 1.65 µM (inactive).

In the case of `NC1=C(Cl)C(=O)c2c(O)ccc(O)c2C1=O`, the GI50 in assay [2] was 8.3 µM (inactive); in assay [1] it was 1.77 µM (inactive).

Turning to `COC(=O)C1=C(C(=O)OC)SC(=C2SC3=C(SC(=C4SCCS4)S3)S2)S1`, the GI50 in assay [2] was 86.5 µM (inactive); in assay [1], > 100 µM (inactive).

On to `CCC(NC(C)c1ccccc1)C(=O)c1ccc(OCc2ccccc2)c(OCc2ccccc2)c1` (stereo not given), for which the GI50 in assay [2] and in assay [1] was > 100 µM (inactive) each time.

Turning to `O[C@H]1[C@H](O)[C@@H](O)[C@H](O)[C@@H](O)[C@H]1O` [INOSITOL], the GI50 in assay [2] was > 1000 µM (inactive).

In the case of `NC(=O)NC(=O)CCC(NS(=O)(=O)c1ccccc1)C(=O)NC(N)=O` (stereo not given), the GI50 in assay [2] and in assay [1] was > 100 µM (inactive) in each case.
